Data taken from patent publication US20260256763A1, “Aromatic Amide Derivative, And Preparation Method Therefor And Use Thereof” (Zhejiang Hisun Pharmaceutical Co., Ltd., priority 2023, published 2026).
pIC50: −log10 of the molar value.

Experiments:
OVCAR-3 cells = test: Inhibition on OVCAR-3 cell proliferation (CellTiter-Glo); format: cell-based; conditions: Homo sapiens, OVCAR-3 cells (TP53 R248Q mutation), 72 hours
In short: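 OVCAR-3 (TP53 R248Q) cells seeded at 1000/well overnight, then treated 72 h at 37 °C with compound at final 1000 nM–0.015 nM. CellTiter-Glo luminescence read; inhibition versus 0.3% DMSO control, IC50 by nonlinear regression on log concentration.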

[1] = Pharmacokinetic testing in mice; format: in vivo; conditions: male, mouse, ICR mice, plasma
Experimental: ICR mice were taken as test animals, and intragastrically administered with a control compound AMG650 and compounds 1, 18 and 29 of the present invention, and then drug concentrations in plasma at different moments were determined by an LC/MS/MS method, so as to study pharmacokinetic characteristics of the compounds of the present invention in the mice.
Control compound AMG650, and Compounds 1, 18 and 29.
ICR mice, male, 27.3-30.3 g, purchased from Vital River Laboratory Animal Technology Co., Ltd.
A proper amount of to-be-tested compound was weighed, proper amounts of DMA (N,N-dimethylacetamide), CrEL (polyoxyethylene 35 castor oil) and 5% GS (5% glucose injection) were added in sequence, and the obtained system was evenly mixed by ultrasonic vortex to prepare a 1 mg/mL preparation, wherein DMA, CrEL and 5% GS=10:10:80 (v:v:v).
ICR mice in each to-be-tested compound injection group (9 mice in each group) were fasted overnight and then intragastrically administered with the compound (PO, an administration dosage of the compound was 10 mg/kg and an administration volume of the compound was 10 mL/kg), and were fed 4 hours after administration.
0.25 hours, 0.5 hours, 1 hour, 2 hours, 4 hours, 8 hours, 10 hours and 24 hours before and after administration, about […] of blood was collected through an orbit, and a complete blood sample was placed in an EDTA-K2-containing anticoagulation tube. The collected blood sample was placed on ice, and plasma was centrifugally separated (centrifugation conditions: 1500 g, 10 minutes). The collected plasma was stored at −40~−20° C. before analysis.
A content of the to-be-tested compound in the plasma of the mice after intragastric administration was determined by LC-MS/MS.

[2] = test system: OVCAR-3 human ovarian adenocarcinoma tumor fragment xenograft; test: Pharmacodynamic testing in OVCAR-3 tumor fragment xenograft model; format: in vivo, BALB/c nude mice; conditions: 16 days after administration; for Relative tumor volume (x ± S) / Tumor volume (x ± S): mean ± standard error; for Tumor volume (x ± S): in mm³
Experimental: An anti-tumor effect of Compound 1 of the present invention in a BALB/c nude mouse animal model with subcutaneous OVCAR-3 human ovarian adenocarcinoma tumor fragment xenograft was evaluated.
BALB/c nude mice, female, 6-7 weeks old, purchased from Jiangsu Gempharmatech Biotechnology Co., Ltd.
Mice in a solvent control group were given DMA:CrEL:5% GS=10:10:80 (v:v:v).
AMG650: a proper amount of AMG-650 was weighed, proper amounts of DMA, CrEL and 5% GS were added in sequence, and the obtained system was evenly mixed by ultrasonic vortex to prepare 0.8 mg/mL and 0.4 mg/mL preparations respectively, wherein DMA, CrEL and 5% GS=10:10:80 (v:v:v).
Compound 1: a proper amount of Compound 1 was weighed, proper amounts of DMA, CrEL and 5% GS were added in sequence, and the obtained system was evenly mixed by ultrasonic vortex to prepare 0.8 mg/mL and 0.4 mg/mL preparations respectively, wherein DMA, CrEL and 5% GS=10:10:80 (v:v:v).
An appropriate OVCAR-3 tumor-bearing animal was selected, a 1 mm×1 mm×1 mm OVCAR-3 tumor fragment was acquired aseptically and placed into normal saline for later use, which was used for subcutaneous tumor inoculation in a right side of back of the BALB/c nude mice.
About 1 mm×1 mm×1 mm OVCAR-3 tumor fragment was subcutaneously inoculated in the right side of back of the female BALB/c nude mice. When an average tumor volume reached about 100-250 mm^3, the mice were randomly grouped according to the tumor size, with 6 mice in each group.
Animals in each group were given the test compound once per day according to an animal weight at a fixed time every day by oral administration (po), the animals started to be administered with the test compound for the first time on the day of grouping for 22 consecutive days, and the animal weight was recorded every day. • The 1st group (G1) was a solvent control group; • The 2nd group (G2) and the 3rd group (G3) were orally administered with AMG-650 at administration dosages of 8 mg/kg and 4 mg/kg respectively once per day (QD); and • The 4th group (G4) and the 5th group (G5) were orally administered with Compound 1 at administration dosages of 8 mg/kg and 4 mg/kg respectively once per day (QD).
Tumor formation at an inoculation site of the animals in each group was observed, and a tumor volume was measured twice per week, and calculated according to the following formula: • a tumor volume (TV), a relative tumor volume (RTV), a relative tumor proliferation rate (T/C) and a relative tumor inhibition rate (TGI) were calculated according to the following formulas:
TV (tumor volume)=½×a×b^2, wherein a and b respectively represented a tumor length and a tumor width; (1)
RTV (relative tumor volume)=Vt/V0, wherein V0 was a tumor volume measured at the time of grouping, and Vt was a tumor volume in each measurement; (2)
T/C (%)=TRTV/CRTV×100%, wherein TRTV was RTV of a treatment group, and CRTV was RTV of a solvent control group; and (3)
TGI %=(1−T/C)×100%, wherein T and C were relative tumor volumes of the treatment group and the solvent control group at a specific time point respectively. (4)

**Q.** With `CCS(=O)(=O)Nc1ccc(C(=O)Nc2cc3c(c(N4CCC(F)(F)CC4)c2)OCC3)c(N2CCC3(CC2)CC3)c1` [Example 1, N-(7-(4,4-difluoropiperidin-1-yl)-2,3-dihydrobenzofuran-5-yl)-4-(ethylsulfonamido)-2-(6-azaspiro[2.5]octan-6-yl)benzamide] as the molecule, how does the pIC50 (OVCAR-3 cells) read?
**A.** 9.12

**Q.** What about the half-life ([1]; 10 mg/kg, oral administration (10 mg/mL), read-out: Half-life period T½ (converted)) of the same molecule?
**A.** 7.36 h

**Q.** What about the Cmax ([1]; 10 mg/kg, oral administration (10 mg/mL), read-out: Plasma concentration Cmax) of the same molecule?
**A.** 12400 ng/mL

**Q.** What about the AUC(0-inf) ([1]; oral administration (10 mg/kg), read-out: Area under the curve AUC0-∞) of the same molecule?
**A.** 95200 ng·h/mL

**Q.** What about the TGI ([2]; 4 mg/kg po QD) of the same molecule?
**A.** 81.3%

**Q.** What about the “Relative tumor volume (x ± S)” value ([2]; 4 mg/kg po QD) of the same molecule?
**A.** 0.61 ± 0.11

**Q.** What about the “Tumor volume (x ± S)” value ([2]; 4 mg/kg po QD) of the same molecule?
**A.** 120 ± 27

**Q.** What about the TGI ([2]; 8 mg/kg po QD) of the same molecule?
**A.** 95.2%

**Q.** What about the “Relative tumor volume (x ± S)” value ([2]; 8 mg/kg po QD) of the same molecule?
**A.** 0.16 ± 0.03

**Q.** What about the “Tumor volume (x ± S)” value ([2]; 8 mg/kg po QD) of the same molecule?
**A.** 31 ± 8
